Assay results: patent publication US6340694B1, “Diarylbenzopyran derivatives as cyclooxygenase-2 inhibitors” (Pacific Corporation, priority 1998, dated 2002)

Tests used:
COX-2 = biological target: T1, COX-2 (Mus musculus, UniProt Q05769); test: Evaluation of COX-2's inhibition efficacy (PGE2 radioimmuno assay, LPS-induced, aspirin-pretreated peritoneal macrophages); assay type: cell-based, C57BL/6 mouse; conditions: for inhibition at 0.1 µg/mL: 0.1 μg/ml; for inhibition at 1 µg/mL: 1 μg/ml; for inhibition at 10 µg/mL: 10 μg/ml
T1 construct: endogenous in cells; host or cells: peritoneal macrophages of C57BL/6 mouse, aspirin-pretreated, LPS-induced
T1 sequence (Q05769 18-604): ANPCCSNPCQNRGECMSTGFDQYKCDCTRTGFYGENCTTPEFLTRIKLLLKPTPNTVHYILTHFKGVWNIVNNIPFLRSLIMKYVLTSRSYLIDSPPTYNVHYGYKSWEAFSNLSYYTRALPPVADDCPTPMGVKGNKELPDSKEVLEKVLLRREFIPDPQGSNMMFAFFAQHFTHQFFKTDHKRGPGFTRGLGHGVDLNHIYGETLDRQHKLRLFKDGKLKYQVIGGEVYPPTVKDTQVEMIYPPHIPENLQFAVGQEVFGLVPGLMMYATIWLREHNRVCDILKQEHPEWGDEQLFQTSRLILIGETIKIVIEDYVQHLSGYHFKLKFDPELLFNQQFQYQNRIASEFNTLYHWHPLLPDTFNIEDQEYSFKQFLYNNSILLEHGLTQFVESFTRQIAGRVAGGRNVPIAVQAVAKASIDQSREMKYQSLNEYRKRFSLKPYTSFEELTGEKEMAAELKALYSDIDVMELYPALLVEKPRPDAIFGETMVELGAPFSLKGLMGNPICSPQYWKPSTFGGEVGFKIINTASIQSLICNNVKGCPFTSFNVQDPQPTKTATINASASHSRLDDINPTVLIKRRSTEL
Procedure: Regarding the compounds in the above Examples and indomethacin, the inhibition efficacy of COX-2 and COX-1 are being measured by the following two methods. […] Evaluation of COX-2's Inhibition Efficacy (J. Pharmacol. Exp. […] After cleaning C57BL/6 mouse's abdomen by 70% EtOH, the skin of mouse's abdomen was eliminated cautiously not to harm peritomeum and 5 ml of cold PBS was poured into the abdominal cavity and in certain times later macrophage-bleeding abdominal-liquid was collected by syringe. […] After putting 1 ml cell suspension having cell number of 1×10^6 cells/mu into each 24-well microtiter plates, macrophages were adhered to the bottom of plate by culturing in the condition of 5% CO2/95% O2, at a temperature of 37° C. for 2 hours. Other cells not being adhered to were eliminated by washing two times with PBS. The purity of macrophages obtained through this process was identified by differential counting. […] After inducing COX-2 by LPS, the cell culture medium was eliminated and macrophages was washed two times with PBS. And 1 ml of RRPI-1640 badge was added to each well again and after treating them with sample with appropriate concentration, they were cultured at a temperature of 37i É for 10 minutes. And then treated them with arachidonic acid to make their final concentration as 10 μM and cultured them additional 10 minutes, all the supernatant liquid of reaction was obtained. The amount of PGE2 produced in the supernatant liquid of reaction was determined by the PGE2 radioimmuno assay.

CS(=O)(=O)c1ccc(-c2oc3ccccc3c(=O)c2-c2cccc3ccccc23)cc1 [Example 13, 2-(4-(methylsulfonyl)phenyl)-3-(1-naphthyl)-4H-1-benzopyran-4-one]
melting point: 193 to 194 °C

CS(=O)(=O)c1ccc(-c2oc3ccccc3c(=S)c2-c2ccccc2F)cc1 [Example 45, 3-(2-Fluorophenyl)-2-(4-(methylsulfonyl)phenyl)-4H-1-benzopyran-4-thione]
melting point: 198 to 200 °C

Cc1cccc(-c2c(-c3ccc(S(C)(=O)=O)cc3)oc3ccccc3c2=S)c1 [Example 39, 3-(3-Methylphenyl)-2-(4-(methylsulfonyl)phenyl)-4H-1-benzopyran-4-thione]
inhibition at 0.1 µg/mL (COX-2): 11% | inhibition at 1 µg/mL (COX-2): 31% | inhibition at 10 µg/mL (COX-2): 86% | melting point: 201 to 202 °C

COc1ccc(-c2c(-c3ccc(S(C)(=O)=O)cc3)oc3ccccc3c2=S)cc1 [Example 44, 3-(4-Methoxyphenyl)-2-(4-(methylsulfonyl)phenyl)-4H-1-benzopyran-4-thione]
melting point: 199 °C

CC(=O)c1ccc(-c2c(-c3ccc(S(C)(=O)=O)cc3)oc3ccccc3c2=O)cc1 [Example 8, 3-(4-Acetylphenyl)-2-(4-(methylsulfonyl)phenyl)-4H-1-benzopyran-4-one]
melting point: 223 to 224 °C

CS(=O)(=O)c1ccc(-c2oc3ccccc3c(=S)c2-c2cccc(F)c2)cc1 [Example 46, 3-(3-Fluorophenyl)-2-(4-(methylsulfonyl)phenyl)-4H-1-benzopyran-4-thione]
inhibition at 0.1 µg/mL (COX-2): 4% | inhibition at 1 µg/mL (COX-2): 67% | inhibition at 10 µg/mL (COX-2): 91% | melting point: 212 °C

CS(=O)(=O)c1ccc(-c2oc3ccccc3c(=O)c2-c2ccc(Cl)cc2Cl)cc1 [Example 5, 3-(2,4-Dichlorophenyl)-2-(4-(methylsulfonyl)phenyl)-4H-1-benzopyran-4-one]
inhibition at 0.1 µg/mL (COX-2): 39% | inhibition at 1 µg/mL (COX-2): 90% | inhibition at 10 µg/mL (COX-2): 100% | melting point: 172 to 175 °C

CS(=O)(=O)c1ccc(-c2oc3ccccc3c(=S)c2-c2cccc(Cl)c2Cl)cc1 [Example 38, 3-(2,3-Dichlorophenyl)-2-(4-(methylsulfonyl)phenyl)-4H-1-benzopyran-4-thione]
inhibition at 0.1 µg/mL (COX-2): 18% | inhibition at 1 µg/mL (COX-2): 77% | inhibition at 10 µg/mL (COX-2): 96% | melting point: 191 to 192 °C

Cc1ccc(-c2c(-c3ccc(S(C)(=O)=O)cc3)oc3ccccc3c2=S)cc1 [Example 43, 3-(4-Methylphenyl)-2-(4-(methylsulfonyl)phenyl)-4H-1-benzopyran-4-thione]
melting point: 204 to 205 °C

CS(=O)(=O)c1ccc(-c2oc3ccccc3c(=O)c2-c2cccs2)cc1 [Example 7, 2-(4-(Methylsulfonyl)phenyl)-3-(2-thienyl)-4H-1-benzopyran-4-one]
melting point: 165 to 167 °C

Cc1ccc(-c2c(-c3ccc(S(N)(=O)=O)cc3)oc3ccc(F)cc3c2=O)cc1 [Example 49, 2-(4-(Aminosulfonyl)phenyl)-6-fluoro-3-(4-methylphenyl)-4H-1-benzopyran-4-one]
inhibition at 0.1 µg/mL (COX-2): 32% | inhibition at 1 µg/mL (COX-2): 76% | inhibition at 10 µg/mL (COX-2): 92% | melting point: 215 to 217 °C

NS(=O)(=O)c1ccc(-c2oc3ccc(F)cc3c(=O)c2-c2ccc(Cl)cc2)cc1 [Example 50, 2-(4-(Aminosulfonyl)phenyl)-6-fluoro-3-(4-chlorophenyl)-4H-1-benzopyran-4-one]
inhibition at 0.1 µg/mL (COX-2): 5% | inhibition at 1 µg/mL (COX-2): 80% | inhibition at 10 µg/mL (COX-2): 87% | melting point: 215 to 217 °C

CS(=O)(=O)c1ccc(-c2oc3ccccc3c(=S)c2-c2ccc(Cl)c(Cl)c2)cc1 [Example 42, 3-(3,4-Dichlorophenyl)-2-(4-(methylsulfonyl)phenyl)-4H-1-benzopyran-4-thione]
melting point: 168 °C
